{
  "source": "patent US9580409B2",
  "about": "“Modulators of opioid receptors and methods of use thereof” (priority 2011, dated 2017)",
  "target": "mu-opioid receptor (Homo sapiens, UniProt P35372)",
  "sequence (P35372 whole entry, species assumed)": "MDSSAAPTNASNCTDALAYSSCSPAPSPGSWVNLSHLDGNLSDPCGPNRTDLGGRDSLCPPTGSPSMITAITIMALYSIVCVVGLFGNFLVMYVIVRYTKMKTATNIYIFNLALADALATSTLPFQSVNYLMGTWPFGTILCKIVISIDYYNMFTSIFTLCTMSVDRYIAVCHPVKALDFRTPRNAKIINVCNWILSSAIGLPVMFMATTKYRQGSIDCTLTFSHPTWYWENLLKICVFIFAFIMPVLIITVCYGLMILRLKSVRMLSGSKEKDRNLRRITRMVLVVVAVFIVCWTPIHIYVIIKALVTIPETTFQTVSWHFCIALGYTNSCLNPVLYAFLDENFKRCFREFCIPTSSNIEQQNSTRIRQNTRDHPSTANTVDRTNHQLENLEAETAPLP",
  "test": "biochemical",
  "conditions": "read-out: GTP Activity",
  "key": {"[1]": {"conditions": "[…], class symbol combines EC50 and efficacy"}},
  "note": "Where two headings read alike, the source gives them in different places.",
  "data": [
    {"smiles": "CNC1=C(c2nc3ccccc3[nH]2)C(=O)C(C)(C)N1c1ccc(C)cc1C", "note": "[compound 104]", "values": [
      {"measurement": "EC50", "setting": "class symbols", "value": "1000 to 10000", "unit": "nM"}
    ]},
    {"smiles": "CNC1=C(c2nc3ccccc3[nH]2)C(=O)[C@](C)(CCO)N1c1cc(OC)cc(OC)c1", "note": "[compound 262]", "values": [
      {"measurement": "EC50", "setting": "[1]", "value": "< 100", "unit": "nM"}
    ]},
    {"smiles": "CCNC1=C(c2nc3ccccc3[nH]2)C(=O)[C@@H](CC)N1c1cc(OC)cc(OC)c1", "note": "[compound 186]", "values": [
      {"measurement": "EC50", "setting": "class symbols", "value": "100 to 1000", "unit": "nM"}
    ]},
    {"smiles": "COc1cc(OC)cc(N2C(N)=C(c3nc4ccccc4[nH]3)C(=O)[C@]2(C)CCNC(C)=O)c1", "note": "[compound 301]", "values": [
      {"measurement": "EC50", "setting": "[1]", "value": "100 to 1000", "unit": "nM"}
    ]},
    {"smiles": "CNC1=C(c2nc3ccccc3[nH]2)C(=O)C(CO)(CO)N1c1cc(OC)cc(OC)c1", "note": "[compound 263]", "values": [
      {"measurement": "EC50", "setting": "[1]", "value": "100 to 1000", "unit": "nM"}
    ]},
    {"smiles": "CNC1=C(c2nc3ccccc3[nH]2)C(=O)[C@](C)(COC)N1c1cc(OC)cc(OC)c1", "note": "[compound 297]", "values": [
      {"measurement": "EC50", "setting": "[1]", "value": "100 to 1000", "unit": "nM"}
    ]},
    {"smiles": "CNC1=C(c2nc3ccccc3[nH]2)C(=O)C2(CCC(O)C2)N1c1cc(OC)cc(OC)c1", "note": "(stereo not drawn) [compound 311]", "values": [
      {"measurement": "EC50", "setting": "[1]", "value": "< 100", "unit": "nM"}
    ]},
    {"smiles": "COc1cc(OC)cc(N2C(N)=C(c3nc4ccccc4[nH]3)C(=O)C23CCN(C)C3)c1", "note": "(stereo not drawn) [compound 183]", "values": [
      {"measurement": "EC50", "setting": "class symbols", "value": "1000 to 10000", "unit": "nM"}
    ]},
    {"smiles": "CNC1=C(c2nc3ccccc3[nH]2)C(=O)C(C)(Cc2ccco2)N1c1cc(OC)cc(OC)c1", "note": "(stereo not drawn) [compound 280]", "values": [
      {"measurement": "EC50", "setting": "[1]", "value": "100 to 1000", "unit": "nM"}
    ]},
    {"smiles": "CNC1=C(c2nc3ccccc3[nH]2)C(=O)C(C)(CCOC)N1c1cc(OC)cc(OC)c1", "note": "(stereo not drawn) [compound 220]", "values": [
      {"measurement": "EC50", "setting": "[1]", "value": "< 100", "unit": "nM"}
    ]},
    {"smiles": "CNC1=C(c2nc3ccccc3[nH]2)C(=O)C2(CCC(=O)C2)N1c1cc(OC)cc(OC)c1", "note": "(stereo not drawn) [compound 312]", "values": [
      {"measurement": "EC50", "setting": "[1]", "value": "< 100", "unit": "nM"}
    ]},
    {"smiles": "CNC1=C(c2nc3ccccc3[nH]2)C(=O)C2(CNC2)N1c1cc(OC)cc(OC)c1", "note": "[compound 192]", "values": [
      {"measurement": "EC50", "setting": "class symbols", "value": "100 to 1000", "unit": "nM"}
    ]},
    {"smiles": "CCC(=O)N1CC2(C1)C(=O)C(c1nc3ccccc3[nH]1)=C(N)N2c1cc(OC)cc(OC)c1", "note": "[compound 249]", "values": [
      {"measurement": "EC50", "setting": "[1]", "value": "1000 to 10000", "unit": "nM"}
    ]},
    {"smiles": "CNC1=C(c2nc3ccccc3[nH]2)C(=O)C(C)(C)N1c1cc(C)cc(C)c1", "note": "[compound 105]", "values": [
      {"measurement": "EC50", "setting": "class symbols", "value": "100 to 1000", "unit": "nM"}
    ]},
    {"smiles": "NC1=C(c2nc3ccccc3[nH]2)C(=O)CN1c1ccccc1Oc1ccccc1", "note": "[compound 46]", "values": [
      {"measurement": "EC50", "setting": "class symbols", "value": "1000 to 10000", "unit": "nM"}
    ]},
    {"smiles": "CNC1=C(c2nc3ccccc3[nH]2)C(=O)[C@@](C)(CNC(=O)COC)N1c1cc(OC)cc(OC)c1", "note": "[compound 318]", "values": [
      {"measurement": "EC50", "setting": "[1]", "value": "< 100", "unit": "nM"}
    ]},
    {"smiles": "CNC1=C(c2nc3ccccc3[nH]2)C(=O)C(C)(O)N1c1cc(OC)cc(OC)c1", "note": "(stereo not drawn) [compound 114]", "values": [
      {"measurement": "EC50", "setting": "class symbols", "value": "100 to 1000", "unit": "nM"}
    ]},
    {"smiles": "COc1cc(OC)cc(N2C(N)=C(c3nc4ccccc4[nH]3)C(=O)C23CCCN(C(C)=O)C3)c1", "note": "(stereo not drawn) [compound 294]", "values": [
      {"measurement": "EC50", "setting": "[1]", "value": "1000 to 10000", "unit": "nM"}
    ]},
    {"smiles": "COc1cccc(N2C(N)=C(c3nc4ccccc4[nH]3)C(=O)C2(C)C)c1", "note": "[compound 163]", "values": [
      {"measurement": "EC50", "setting": "class symbols", "value": "1000 to 10000", "unit": "nM"}
    ]},
    {"smiles": "COc1cc(OC)cc(N2C(N)=C(c3nc4ccccc4[nH]3)C(=O)[C@]23C[C@@H](O)C3)c1", "note": "[compound 206]", "values": [
      {"measurement": "EC50", "setting": "[1]", "value": "100 to 1000", "unit": "nM"}
    ]},
    {"smiles": "CNC1=C(c2nc3ccccc3[nH]2)C(=O)[C@@](C)(CCO)N1c1cc(OC)cc(OC)c1", "note": "[compound 261]", "values": [
      {"measurement": "EC50", "setting": "[1]", "value": "100 to 1000", "unit": "nM"}
    ]},
    {"smiles": "Cc1ccc(C)c(N2CC(=O)C(c3nc4c(C)cccc4[nH]3)=C2N)c1", "note": "[compound 17]", "values": [
      {"measurement": "EC50", "setting": "class symbols", "value": "1000 to 10000", "unit": "nM"}
    ]},
    {"smiles": "COc1cc(OC)cc(N2C(N)=C(c3nc4ccccc4[nH]3)C(=O)[C@H]2CCO)c1", "note": "[compound 241]", "values": [
      {"measurement": "EC50", "setting": "[1]", "value": "100 to 1000", "unit": "nM"}
    ]},
    {"smiles": "CNC1=C(c2nc3ccccc3[nH]2)C(=O)[C@@](C)(CCOC)N1c1cc(OC)cc(OC)c1", "note": "[compound 300]", "values": [
      {"measurement": "EC50", "setting": "[1]", "value": "< 100", "unit": "nM"}
    ]},
    {"smiles": "COc1cc(OC)cc(N2C(N)=C(c3nc4ccccc4[nH]3)C(=O)[C@@]2(C)CCNC(C)=O)c1", "note": "[compound 302]", "values": [
      {"measurement": "EC50", "setting": "[1]", "value": "100 to 1000", "unit": "nM"}
    ]},
    {"smiles": "CNC1=C(c2nc3ccccc3[nH]2)C(=O)[C@]2(C[C@H](O)C2)N1c1cc(OC)cc(OC)c1", "note": "[compound 260]", "values": [
      {"measurement": "EC50", "setting": "[1]", "value": "100 to 1000", "unit": "nM"}
    ]},
    {"smiles": "CNC1=C(c2nc3ccccc3[nH]2)C(=O)C(C(C)=O)N1c1cc(OC)cc(OC)c1", "note": "(stereo not drawn) [compound 279]", "values": [
      {"measurement": "EC50", "setting": "[1]", "value": "< 100", "unit": "nM"}
    ]},
    {"smiles": "COCCC1(C)C(=O)C(c2nc3ccccc3[nH]2)=C(N)N1c1cc(OC)cc(OC)c1", "note": "(stereo not drawn) [compound 219]", "values": [
      {"measurement": "EC50", "setting": "[1]", "value": "100 to 1000", "unit": "nM"}
    ]},
    {"smiles": "COc1cc(OC)cc(N2C(N)=C(c3nc4ccccc4[nH]3)C(=O)C23CCCOC3)c1", "note": "(stereo not drawn) [compound 295]", "values": [
      {"measurement": "EC50", "setting": "[1]", "value": "100 to 1000", "unit": "nM"}
    ]},
    {"smiles": "COc1cc(OC)cc(N2C(N)=C(c3nc4ccccc4[nH]3)C(=O)C2(C)CCO)c1", "note": "(stereo not drawn) [compound 216]", "values": [
      {"measurement": "EC50", "setting": "[1]", "value": "100 to 1000", "unit": "nM"}
    ]}
  ]
}
